The values that follow come from PMC10545747, “Development of cyclopeptide inhibitors of cGAS targeting protein-DNA interaction and phase separation” (Nature Communications, 2023).

This test has as its target T1, recombinant human cGAS enzyme (hcGAS-ΔN, residues 147–522) (Homo sapiens, UniProt Q8N884).
T1 construct: N-terminally truncated human cGAS (hcGAS-ΔN, residues 147–522); 6xHis-SUMO (N, cleaved yes); made in house; host or cells: Escherichia coli BL21 (DE3)
Put plainly: RNA-based fluorescent biosensor assay of cGAS activity (2',3'-cGAMP formation), in vitro screening. As to conditions: for Remaining activity (%), Fig. 1a source data / remaining activity at 20 µM: 20 μM, replicate values; for remaining activity at 20 µM: read-out: Remaining activity (%), Fig. 1a source data. Type of test: biochemical. The text has this: To screen direct cGAS inhibitors targeting protein-DNA interface from our developed focused library of macrocyclic peptides, we applied an RNA-based fluorescent biosensor for 2’,3’-cGAMP to detect cGAS activity in vitro (Supplementary Fig. 1a)[49]. The formation of 2’,3’-cGAMP from ATP and GTP was catalyzed by recombinant human cGAS enzyme (hcGAS-ΔN, residues 147–522, Supplementary Fig. 1b) in the presence of ISD (interferon stimulatory DNA, a 45-bp dsDNA), which was readily quantified by the RNA-based fluorescent biosensor and was further confirmed by ion exchange chromatography (Supplementary Fig. 1c). […] Subsequently, a total of 90 macrocyclic peptides were screened at a concentration of 20 μM (Fig. 1a and Supplementary Fig. 1e), and 4 hits (XQ2, XQ8, XQ19, and XQ46) were obtained for further testing at a cut-off of 40% inhibition (Supplementary Table 1). To evaluate the inhibitory effect of the hits against cGAS in cells, we employed real-time quantitative PCR (qPCR) to examine mRNA levels of IFNΒ1 in THP1 cells. The reported cGAS inhibitor RU.521 was used as the positive control, and the non-active peptide XQ28 in the screening assay was used as the negative control. […] The inhibition of cGAS by these hits was further confirmed in the reporter cell line THP1-Lucia ISG (Invivogen) that expresses secreted luciferase induced by an IRF3-inducible ISG54 promoter (Fig. 1c). The discrepancy between the inhibitory effect of the hits in protein and cellular assays may be attributed to their different cellular permeability.
The high-throughput screening (HTS) experiments of cGAS activity are based on the method previously described. To initiate the enzyme reaction, ISD was added to the reaction solution (40 mM Tris-HCl, pH 7.5, 100 mM NaCl, 10 mM MgCl2) containing hcGAS-ΔN, ATP (Sangon Biotech, Cat# A600311) and GTP (Sangon Biotech, Cat# A620332) in a total volume of 20 ul with the final concentration of 0.5 μM, 1.5 μM, 1 mM, 1 mM, respectively, and incubated for 2 h at 37 °C. For HTS experiments, compounds were added to the same reaction conditions as described above with the final concentration of 20 μM. Z’ factors were calculated from three replicates in the 384-well plate.

Where [1] appears, read: peptides screened at 20 μM, Supplementary Table 1 / Fig. S5b, read-out: Inhibition %.
[2] abbreviates: peptides screened at 20 μM, Supplementary Table 1 / Fig. S5b.

“And” between values parts separate entries of the source, which are not always exact repeats. Equal values may be shown once. Read-outs that look alike come from different tables or passages of the source. Square brackets hold non-standard residues; d marks the D form. Peptide text beside a SMILES is read from it.

T1 sequence (Q8N884 147-522, stated change not applied): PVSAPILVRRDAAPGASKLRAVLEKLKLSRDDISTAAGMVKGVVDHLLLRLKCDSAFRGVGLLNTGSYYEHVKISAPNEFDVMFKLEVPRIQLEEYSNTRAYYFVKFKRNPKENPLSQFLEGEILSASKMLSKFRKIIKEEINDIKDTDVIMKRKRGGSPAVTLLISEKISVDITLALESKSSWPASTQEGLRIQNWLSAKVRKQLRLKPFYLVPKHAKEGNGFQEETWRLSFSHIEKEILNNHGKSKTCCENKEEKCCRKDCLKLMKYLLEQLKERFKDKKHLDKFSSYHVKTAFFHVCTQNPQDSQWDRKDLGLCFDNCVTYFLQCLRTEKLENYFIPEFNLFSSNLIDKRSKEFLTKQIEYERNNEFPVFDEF

As for `CC(C)C[C@@H]1NC(=O)[C@H](CCCNC(=N)N)NC(=O)[C@H](CC(=O)O)NC(=O)[C@H](C(C)C)NC(=O)[C@@H]2CCCN2C(=O)[C@@H](Cc2ccccc2)NC(=O)[C@H](CC(C)C)NC(=O)[C@H]([C@@H](C)O)NC(=O)[C@@H]2CCCN2C(=O)[C@@H](Cc2ccccc2)NC1=O` [XQ65, Cyclo (LfPTLfPVDR)] (cyclo(DRL[dF]PTL[dF]PV)), under setting [1], the inhibition (commonly the percentage by which the read-out fell short of the control) at 20 µM was 0%.
On to `CC(C)C[C@@H]1NC(=O)[C@H](CCCNC(=N)N)NC(=O)[C@H](C(C)C)NC(=O)[C@@H]2CCCN2C(=O)[C@@H](CC(C)C)NC(=O)[C@H](C)NC(=O)[C@H](CCCNC(=N)N)NC(=O)[C@H](C(C)C)NC(=O)[C@@H]2CCCN2C(=O)[C@@H](Cc2ccccc2)NC1=O` [XQ49, Cyclo (AlPVRLfPVR)] (cyclo(A[dL]PVRL[dF]PVR)), for which the inhibition at 20 µM was found to be 0%.
For the molecule `CC(C)C[C@@H]1NC(=O)[C@H](CC(=O)O)NC(=O)[C@H](C(C)C)NC(=O)[C@@H]2CCCN2C(=O)[C@@H](Cc2ccccc2)NC(=O)[C@H](C)NC(=O)[C@H](CCCNC(=N)N)NC(=O)[C@H](C)NC(=O)[C@@H]2CCCN2C(=O)[C@@H](Cc2ccccc2)NC1=O` [XQ58, Cyclo (AfPVDLfPAR)] (cyclo(ARA[dF]PVDL[dF]P)), the inhibition at 20 µM under setting [1] amounted to 0%.
For Cyclo (LwPVD(Nle)f(K(Dde))IR) [XQ75], the Inhibition % under setting [2] was determined as 0%.
With `CC(C)C[C@@H]1NC(=O)[C@H](CCCNC(=N)N)NC(=O)[C@H]([C@@H](C)O)NC(=O)[C@@H]2CCCN2C(=O)[C@@H](C)NC(=O)[C@H](CC(C)C)NC(=O)[C@H](CCCNC(=N)N)NC(=O)[C@H]([C@@H](C)O)NC(=O)[C@@H]2CCCN2C(=O)[C@@H](C)NC1=O` [XQ40, Cyclo (LaPTRLaPTR)] (cyclo(L[dA]PTRL[dA]PTR)), the “Remaining activity (%), Fig. 1a source data” value (“Remaining activity (%)” below) is 115.337% and 116.119%; the remaining activity – broadly, the signal under treatment as a percentage of the control signal – at 20 µM was determined as 117%. Also, the inhibition at 20 µM under setting [1] is 0%.
Regarding `CC(C)C[C@H]1NC(=O)[C@H](Cc2ccccc2)NC(=O)[C@H]2CCCN2C(=O)[C@@H]([C@H](C)O)NC(=O)[C@@H](CCCNC(=N)N)NC(=O)[C@@H](CC(C)C)NC(=O)[C@H](Cc2ccccc2)NC(=O)[C@H]2CCCN2C(=O)[C@@H](C(C)C)NC(=O)[C@@H](CCCNC(=N)N)NC1=O` [XQ23, Cyclo (tpFlrvpFlr)] (cyclo(F[dL][dR][dT][dP]F[dL][dR][dV][dP])), the “Remaining activity (%)” value is 103.183% and 102.415%; the remaining activity at 20 µM stood at 103%. Further, the inhibition at 20 µM under setting [1] worked out at 0%.
Take `CC(C)C[C@@H]1NC(=O)[C@H](C)NC(=O)[C@H](C(C)C)NC(=O)[C@@H]2CCCN2C(=O)[C@@H](CCCNC(=N)N)NC(=O)[C@H](CC(C)C)NC(=O)[C@H](CCCNC(=N)N)NC(=O)[C@H](C(C)C)NC(=O)[C@@H]2CCCN2C(=O)[C@@H](Cc2ccccc2)NC1=O` [XQ55, Cyclo (LrPVALfPVR)] (cyclo(AL[dF]PVRL[dR]PV)): under setting [1], the inhibition at 20 µM turned out to be 0%.
In the case of `N=C(N)NCCC[C@@H]1NC(=O)[C@@H]2CCCN2C(=O)[C@@H](Cc2ccccc2)NC(=O)[C@H](CCCNC(=N)N)NC(=O)[C@@H]2CCCN2C(=O)[C@@H](Cc2ccccc2)NC1=O` [XQ26, Cyclo (PRfPRf)] (cyclo(PR[dF]PR[dF])), the “Remaining activity (%)” value is 116.041% and 118.595%; the remaining activity at 20 µM turned out to be 116%. For the same molecule, the inhibition at 20 µM under setting [1] was 0%.
As for `CC(C)C[C@@H]1NC(=O)[C@H](CCCNC(=N)N)NC(=O)[C@H](C(C)C)NC(=O)[C@@H]2CCCN2C(=O)[C@@H](Cc2ccccc2)NC(=O)[C@H](CC(C)C)NC(=O)[C@H](CCCNC(=N)N)NC(=O)[C@H](C)NC(=O)[C@@H]2CCCN2C(=O)[C@@H](Cc2ccccc2)NC1=O` [XQ3, Cyclo (LfPARLfPVR)] (cyclo(ARL[dF]PVRL[dF]P)), the “Remaining activity (%)” value was 67.2186% and 66.8539%; the remaining activity at 20 µM turned out to be 67.1%. Also, under setting [1], the inhibition at 20 µM was 33%.
Turning to `CC(C)[C@@H]1NC(=O)[C@@H]2CCCN2C(=O)[C@@H](Cc2ccccc2)NC(=O)[C@H](C)NC(=O)[C@H](CCCNC(=N)N)NC(=O)[C@H](C(C)C)NC(=O)[C@@H]2CCCN2C(=O)[C@@H](Cc2ccccc2)NC(=O)[C@H](C)NC(=O)[C@H](CCCNC(=N)N)NC1=O` [XQ10, Cyclo (AfPVRAfPVR)] (cyclo(A[dF]PVRA[dF]PVR)), the “Remaining activity (%)” value is 103.793% and 104.243%; the remaining activity at 20 µM worked out at 103%. Also, the inhibition at 20 µM under setting [1] stood at 0%.
With `CC(C)C[C@@H]1NC(=O)[C@H](CCCNC(=N)N)NC(=O)[C@H]([C@@H](C)O)NC(=O)[C@@H]2CCCN2C(=O)[C@@H](Cc2ccccc2)NC(=O)[C@H](C)NC(=O)[C@H](CCCNC(=N)N)NC(=O)[C@H]([C@@H](C)O)NC(=O)[C@@H]2CCCN2C(=O)[C@@H](Cc2ccccc2)NC1=O` [XQ37, Cyclo (AfPTRLfPTR)] (cyclo(A[dF]PTRL[dF]PTR)), the “Remaining activity (%)” value is 81.1407% and 81.3464%; the remaining activity at 20 µM came to 81%. Further, the inhibition at 20 µM under setting [1] was 18%.
With `CC(C)C[C@@H]1NC(=O)[C@H](CCCNC(=N)N)NC(=O)[C@H](C)NC(=O)[C@@H]2CCCN2C(=O)[C@@H](Cc2ccccc2)NC(=O)[C@H](C)NC(=O)[C@H](CCCNC(=N)N)NC(=O)[C@H](C)NC(=O)[C@@H]2CCCN2C(=O)[C@@H](Cc2ccccc2)NC1=O` [XQ16, Cyclo (AfPARLfPAR)] (cyclo(ARA[dF]PARL[dF]P)), the “Remaining activity (%)” value is 99.1383% and 98.554%; the remaining activity at 20 µM came out at 98.3%. In addition, under setting [1], the inhibition at 20 µM was found to be 1%.
As for Cyclo (Lf(Hyp)TDAfPTR) [XQ86], the Inhibition % under setting [2] amounted to 0%.
Consider `CC(C)C[C@@H]1NC(=O)[C@H](CCCNC(=N)N)NC(=O)[C@H](C(C)C)NC(=O)[C@@H]2CCCN2C(=O)[C@@H](Cc2ccccc2)NC(=O)[C@H](CC(C)C)NC(=O)[C@H](CC(=O)O)NC(=O)[C@H](C(C)C)NC(=O)[C@H](CCCNC(=N)N)NC(=O)[C@@H](Cc2ccccc2)NC1=O` [XQ76, Cyclo (LfRVDLfPVR)] (cyclo(DL[dF]PVRL[dF]RV)), for which the inhibition at 20 µM under setting [1] was 0%.
In the case of `CC(C)C[C@@H]1NC(=O)[C@H](CCCNC(=N)N)NC(=O)[C@H](C)NC(=O)[C@@H]2CCCN2C(=O)[C@@H](Cc2ccccc2)NC(=O)[C@H](CC(C)C)NC(=O)[C@H](CCCNC(=N)N)NC(=O)[C@H](C)NC(=O)[C@@H]2CCCN2C(=O)[C@@H](Cc2ccccc2)NC1=O` [XQ9, Cyclo (LfPARLfPAR)] (cyclo(ARL[dF]PARL[dF]P)), the “Remaining activity (%)” value was 109.335% and 107.433%; the remaining activity at 20 µM was 108%. Moreover, the inhibition at 20 µM under setting [1] came out at 0%.
As to Cyclo (AaRTDLfPVR) [XQ89], the Inhibition % under setting [2] was 0%.
The same measure, in the same setting: the value for Cyclo (LwPTD(Nle)f(K(Dde))VR) [XQ73] was 0%.
For `CC(C)C[C@@H]1NC(=O)[C@H](CCCNC(=N)N)NC(=O)[C@H](C(C)C)NC(=O)[C@@H]2CCCN2C(=O)[C@@H](Cc2c[nH]c3ccccc23)NC(=O)[C@H](CC(C)C)NC(=O)[C@H](CCCNC(=N)N)NC(=O)[C@H](C(C)C)NC(=O)[C@@H]2CCCN2C(=O)[C@@H](Cc2c[nH]c3ccccc23)NC1=O` [XQ11, Cyclo (LwPVRLwPVR)] (cyclo(L[dW]PVRL[dW]PVR)), the “Remaining activity (%)” value is 86.4291% and 86.3946%; the remaining activity at 20 µM is 85.2%. Also, under setting [1], the inhibition at 20 µM is 14%.
Take Cyclo (Aa(Hyp)TDLfPTR) [XQ85]: the Inhibition % under setting [2] is given as 0%.
On the same count and under the same terms, the value for Cyclo (LfPTDAfPVR) [XQ84] was 0%.
Regarding `CC(C)C[C@@H]1NC(=O)[C@H](C)NC(=O)[C@H](CCCNC(=N)N)NC(=O)[C@@H]2CCCN2C(=O)[C@@H](Cc2ccccc2)NC(=O)[C@H](CC(C)C)NC(=O)[C@H](CCCNC(=N)N)NC(=O)[C@H](C(C)C)NC(=O)[C@@H]2CCCN2C(=O)[C@@H](Cc2ccccc2)NC1=O` [XQ43, Cyclo (LfPRALfPVR)] (cyclo(AL[dF]PVRL[dF]PR)), the “Remaining activity (%)” value was 77.1619% and 77.2258%; the remaining activity at 20 µM was 76.3%. Also, the inhibition at 20 µM under setting [1] stood at 23%.
